Measurements as given in article PMC12299463, “Cladolosides of Groups S and T: Triterpene Glycosides from the Sea Cucumber Cladolabes schmeltzii with Unique Sulfation; Human Breast Cancer Cytotoxicity and QSAR” (Marine Drugs, 2025).
Values joined by “and” are separate entries in the source; they are usually repeats but may differ in a detail not shown here. Equal entries are not always repeated. Structures can show the parent of a compound that is named as a salt. Where two headings read alike, the source gives them in different places.

Legend:
human erythrocytes = test: Hemolytic activity against human erythrocytes; format: cell-based; conditions: for ED50, Erythrocytes (hemolytic activity): 1 h at 37 °C
Method: A total of 450 g of human blood (B(III) Rh+) was used to obtain erythrocytes by centrifuging three times for 5 min with phosphate-buffered saline (PBS) (pH 7.4) at 4 °C on a centrifuge LABOFUGE 400R (Heraeus, Hanau, Germany). Ice-cold PBS (pH 7.4) was used for resuspension of erythrocyte residue to a final optical density of 1.5 at 700 nm. Then, 20 µL of tested compound solutions or control (cucumarioside A0-1 [15]) were added to 180 µL of erythrocyte suspension in V-bottom 96-well plates and incubated for 1 h at 37 °C. After centrifugation (900 g, 10 min, laboratory centrifuge LMC-3000 (Biosan, Riga, Latvia)), 100 µL of supernatant was transferred into new flat plates. The values of erythrocyte lysis were measured on microplate photometer Multiskan FC (Thermo Fisher Scientific, Waltham, MA, USA) at λ = 570 nm as hemoglobin concentration in supernatant. […] All the experiments were carried out in triple repetitions, p < 0.05.

[1] = test system: MCF-10A non-tumor mammary epithelial cell line; test: in vitro; format: cell-based, human
[2] = test system: MCF-7 human breast cancer cells; test: cells; format: cell-based; conditions: for Selectivity Index (SI), MCF-7: ratio of IC50 for healthy (MCF-10A) and MCF-7 cells;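 for all read-outs here: IC50 values, including those behind the selectivity ratio, derive from formazan absorbance at 570 nm, tested in triplicate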
[3] = test system: T-47D human breast cancer cells; test: cells; format: cell-based; conditions: for Selectivity Index (SI), T-47D: ratio of IC50 for healthy (MCF-10A) and T-47D cells;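 for all read-outs here: cell viability read as absorbance of formazan dye at 570 nm, each experiment run in triplicate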
[4] = test system: MDA-MB-231 triple-negative breast cancer cells; test: cells; format: cell-based, human; conditions: for Selectivity Index (SI), MDA-MB-231: ratio of IC50 for healthy (MCF-10A) and MDA-MB-231 cells
[5] = MTT assay, MCF-10A, read-out: Cytotoxicity, IC50, MCF-10A
[6] = MTT assay, MCF-7, read-out: Cytotoxicity, IC50, MCF-7
[7] = MTT assay, T-47D, read-out: Cytotoxicity, IC50, T-47D
[8] = MTT assay, MDA-MB-231, read-out: Cytotoxicity, IC50, MDA-MB-231

CO[C@@H]1[C@@H](O)[C@H](O[C@@H]2[C@@H](O)[C@H](O[C@@H]3CO[C@@H](O[C@H]4CC[C@]5(C)C6=CCC78C(=O)O[C@@](C)([C@@H](CCC(C)C)OC(C)=O)[C@H]7[C@@H](OC(C)=O)C[C@@]8(C)[C@@H]6CC[C@H]5C4(C)C)[C@H](O[C@@H]4O[C@H](C)[C@@H](O[C@@H]5OC[C@@H](O)[C@H](O[C@@H]6O[C@H](CO)[C@@H](O)[C@H](OC)[C@H]6O)[C@H]5O)[C@H](O)[C@H]4O)[C@H]3O)O[C@H](CO)[C@H]2O)O[C@H](CO)[C@H]1O (some centres unmarked) [Cladoloside C1 (14), cladoloside C1]
ED50, Erythrocytes (hemolytic activity) (human erythrocytes; listed as C1 (14)): 0.15 ± 0.02 µM
ED50, Erythrocytes (hemolytic activity) (human erythrocytes; listed as cladoloside C1 (14)): 0.15 µM
IC50 [1, 5]: > 20 µM
IC50 [2, 6]: > 20 µM
IC50 [3, 7]: > 20 µM
IC50 [4, 8]: 15.3 ± 0.71 µM

C=C(C)CC[C@@H](OC(C)=O)[C@]1(C)OC(=O)C23CC=C4[C@@H](CC[C@H]5C(C)(C)[C@@H](O[C@@H]6OC[C@@H](O[C@@H]7OC[C@@H](O)[C@H](O[C@@H]8O[C@H](CO)[C@@H](O)[C@H](O)[C@H]8O)[C@H]7O)[C@H](O)[C@H]6O[C@@H]6O[C@H](C)[C@@H](O[C@@H]7OC[C@@H](O)[C@H](O[C@@H]8O[C@H](CO)[C@@H](O)[C@H](OC)[C@H]8O)[C@H]7O)[C@H](O)[C@H]6O)CC[C@]45C)[C@]2(C)C[C@H](OC(C)=O)[C@@H]31 (some centres unmarked) [Cladoloside D (18), Cladoloside D]
Hemolytic (membranolytic) activity, in words (human erythrocytes): high activity
ED50, Erythrocytes (hemolytic activity) (human erythrocytes): 0.29 µM
ED50, Erythrocytes (hemolytic activity) (human erythrocytes; listed as D (18)): 0.29 ± 0.03 µM
Toxicity to normal mammary cells MCF-10A, in words ([1]; MCF-10A): non-toxic
IC50 [1, 5]: > 20 µM
IC50 [2, 6]: 15.3 ± 0.94 µM
Selectivity Index (SI), MCF-7 [2]: >1.31
IC50 [3, 7]: 14.9 ± 0.85 µM
Selectivity Index (SI), T-47D [3]: >1.34
IC50 [4, 8]: 2.98 ± 0.24 µM
Selectivity Index (SI), MDA-MB-231 [4]: >6.7

C=C(C)CC[C@@H](OC(C)=O)[C@]1(C)OC(=O)C23CC=C4[C@@H](CC[C@H]5C(C)(C)[C@@H](O[C@@H]6OC[C@@H](O[C@@H]7OC[C@@H](O)[C@H](O[C@@H]8O[C@H](CO)[C@@H](O)[C@H](OC)[C@H]8O)[C@H]7O)[C@H](O)[C@H]6O[C@@H]6O[C@H](C)[C@@H](O[C@@H]7OC[C@@H](O)[C@H](O[C@@H]8O[C@H](CO)[C@@H](O)[C@H](OC)[C@H]8O)[C@H]7O)[C@H](O)[C@H]6O)CC[C@]45C)[C@]2(C)C[C@H](OC(C)=O)[C@@H]31 (some centres unmarked) [Cladoloside G (25), cladoloside G]
Hemolytic (membranolytic) activity, in words (human erythrocytes): high activity
ED50, Erythrocytes (hemolytic activity) (human erythrocytes; listed as G (25)): 0.35 ± 0.04 µM
ED50, Erythrocytes (hemolytic activity) (human erythrocytes; listed as cladoloside G (25)): 0.35 µM
IC50 [1, 5]: > 20 µM
IC50 [2, 6]: > 20 µM
IC50 [3, 7]: > 20 µM
IC50 [4, 8]: 3.95 ± 0.38 µM
Selectivity Index (SI), MDA-MB-231 [4]: >5.06

CO[C@@H]1[C@@H](O)[C@H](O[C@@H]2[C@@H](O)[C@H](O[C@@H]3CO[C@@H](O[C@H]4CC[C@]5(C)C6=CCC78C(=O)O[C@@](C)([C@@H](CCC(C)C)OC(C)=O)[C@H]7[C@@H](OC(C)=O)C[C@@]8(C)[C@@H]6CC[C@H]5C4(C)C)[C@H](O[C@@H]4O[C@H](C)[C@@H](O[C@@H]5OC[C@@H](O)[C@H](O[C@@H]6O[C@H](CO)[C@@H](O)[C@H](OC)[C@H]6O)[C@H]5O)[C@H](O)[C@H]4O)[C@H]3O)O[C@H](C)[C@H]2O)O[C@H](CO)[C@H]1O (some centres unmarked) [Cladoloside H1 (26), Cladoloside H1]
ED50, Erythrocytes (hemolytic activity) (human erythrocytes): 0.21 ± 0.02 µM
Toxicity to normal mammary cells MCF-10A, in words ([1]; MCF-10A): non-toxic
IC50 [1, 5]: > 20 µM
IC50 [2, 6]: 15.9 ± 1.14 µM
IC50 [3, 7]: 13.2 ± 0.72 µM
IC50 [4, 8]: 2.47 ± 0.32 µM

C=C(C)CC[C@@H](OC(C)=O)[C@]1(C)OC(=O)C23CC=C4[C@@H](CC[C@H]5C(C)(C)[C@@H](O[C@@H]6OC[C@@H](O[C@@H]7O[C@H](CO)[C@@H](O)[C@H](O[C@@H]8O[C@H](CO)[C@@H](O)[C@H](OC)[C@H]8O)[C@H]7O)[C@H](O)[C@H]6O[C@@H]6O[C@H](C)[C@@H](O[C@@H]7OC[C@@H](O)[C@H](O[C@@H]8O[C@H](CO)[C@@H](O)[C@H](OC)[C@H]8O)[C@H]7O)[C@H](O)[C@H]6O)CC[C@]45C)[C@]2(C)C[C@H](O)[C@@H]31 (some centres unmarked) [C3 (16), cladoloside C3]
ED50, Erythrocytes (hemolytic activity) (human erythrocytes): 12.10 ± 0.58 µM
ED50, Erythrocytes (hemolytic activity) (human erythrocytes; listed as cladoloside C3 (16)): 12.10 µM
IC50 [1]: > 20 µM
IC50 [2]: > 20 µM
IC50 [3]: > 20 µM
IC50 [4]: > 20 µM

C=C(C)CC[C@@H](OC(C)=O)[C@]1(C)OC(=O)C23CC=C4[C@@H](CC[C@H]5C(C)(C)[C@@H](O[C@@H]6OC[C@@H](O[C@@H]7O[C@H](CO)[C@@H](O)[C@H](O[C@@H]8O[C@H](CO)[C@@H](O)[C@H](OC)[C@H]8O)[C@H]7O)[C@H](O)[C@H]6O[C@@H]6O[C@H](C)[C@@H](O[C@@H]7OC[C@@H](O)[C@H](O[C@@H]8O[C@H](CO)[C@@H](O)[C@H](OS(=O)(=O)O)[C@H]8O)[C@H]7O)[C@H](O)[C@H]6O)CC[C@]45C)[C@]2(C)C[C@H](OC(C)=O)[C@@H]31 (stereo partly drawn) [Cladoloside T (3), 3β-O-{3-O-sodium sulfate-β-D-glucopyranosyl-(1→3)-β-D-xylopyranosyl-(1→4)-β-D-quinovopyranosyl-(1→2)-[3-O-methyl-β-D-glucopyranosyl-(1→3)-β-D-glucopyranosyl-(1→4)]-β-D-xylopyranosyl}-16S,22R-diacetoxyholosta-9,25-diene]
ED50, Erythrocytes (hemolytic activity) (human erythrocytes): 0.39 µM and 0.39 ± 0.03 µM
IC50 [1]: 8.23 ± 0.52 µM
IC50 [2]: 8.99 ± 0.61 µM
IC50 [3]: 8.21 ± 0.72 µM
IC50 [4]: 3.41 ± 0.33 µM

COC1C(O)C(CO)OC(OC2C(O)COC(OC3C(C)OC(OC4C(OC5CCC6(C)C7=CCC89C(=O)OC(C)(CC=CC(C)(C)O)C8C(=O)CC9(C)C7CCC6C5(C)C)OCC(O)C4O)C(O)C3O)C2O)C1O (centres unmarked) [A5 (9), cladoloside A5]
ED50, Erythrocytes (hemolytic activity) (human erythrocytes): 7.19 ± 0.53 µM
ED50, Erythrocytes (hemolytic activity) (human erythrocytes; listed as cladoloside A5 (9)): 7.19 µM
IC50 [1, 5]: > 20 µM
IC50 [2, 6]: > 20 µM
IC50 [3, 7]: > 20 µM
IC50 [4, 8]: > 20 µM

C=C(C)CC[C@@H](OC(C)=O)[C@]1(C)OC(=O)C23CC=C4[C@@H](CC[C@H]5C(C)(C)[C@@H](O[C@@H]6OC[C@@H](O)[C@H](O)[C@H]6O[C@@H]6O[C@H](C)[C@@H](O[C@@H]7OC[C@@H](O)[C@H](O[C@@H]8O[C@H](CO)[C@@H](O)[C@H](OC)[C@H]8O)[C@H]7O)[C@H](O)[C@H]6O)CC[C@]45C)[C@]2(C)C[C@H](OC(C)=O)[C@@H]31 (some centres unmarked) [A2 (6), cladoloside A2]
Hemolytic (membranolytic) activity, in words (human erythrocytes): moderate activity
ED50, Erythrocytes (hemolytic activity) (human erythrocytes): 2.78 ± 0.32 µM
IC50 [1, 5]: > 20 µM
IC50 [2, 6]: > 20 µM
IC50 [3, 7]: > 20 µM
IC50 [4, 8]: > 20 µM

C=C(C)CC[C@@H](OC(C)=O)[C@]1(C)OC(=O)C23CC=C4[C@@H](CC[C@H]5C(C)(C)[C@@H](O[C@@H]6OC[C@@H](O[C@@H]7O[C@H](CO)[C@@H](O)[C@H](O)[C@H]7O)[C@H](O)[C@H]6O[C@@H]6O[C@H](C)[C@@H](O[C@@H]7OC[C@@H](O)[C@H](O[C@@H]8O[C@H](COS(=O)(=O)[O-])[C@@H](O)[C@H](OC)[C@H]8O)[C@H]7O)[C@H](O)[C@H]6O)CC[C@]45C)[C@]2(C)C[C@H](OC(C)=O)[C@@H]31.[Na+] (some centres unmarked) [I2 (29), cladoloside I2]
ED50, Erythrocytes (hemolytic activity) (human erythrocytes): 4.24 ± 0.31 µM
ED50, Erythrocytes (hemolytic activity) (human erythrocytes; listed as cladoloside I2 (29)): 4.24 µM
IC50 [1]: > 20 µM
IC50 [2]: > 20 µM
IC50 [3]: > 20 µM
IC50 [4]: > 20 µM

CO[C@@H]1[C@@H](O)[C@H](O[C@@H]2[C@@H](O)[C@H](O[C@H]3[C@H](O)[C@@H](O)[C@H](O[C@H]4[C@H](O[C@H]5CC[C@]6(C)C7=CCC89C(=O)O[C@@](C)([C@@H](CCC(C)C)OC(C)=O)[C@H]8[C@@H](OC(C)=O)C[C@@]9(C)[C@@H]7CC[C@H]6C5(C)C)OC[C@@H](O)[C@@H]4O)O[C@@H]3C)OC[C@H]2O)O[C@H](CO)[C@H]1O (some centres unmarked) [A1 (5)]
ED50, Erythrocytes (hemolytic activity) (human erythrocytes): 6.17 ± 0.51 µM
IC50 [1]: > 20 µM
IC50 [2]: > 20 µM
IC50 [3]: > 20 µM
IC50 [4]: > 20 µM

C=C(C)CCC[C@]1(C)OC(=O)C23CC=C4[C@@H](CC[C@H]5C(C)(C)[C@@H](O[C@@H]6OC[C@@H](O[C@@H]7O[C@H](CO)[C@@H](O)[C@H](O[C@@H]8O[C@H](COS(=O)(=O)[O-])[C@@H](O)[C@H](OC)[C@H]8O)[C@H]7O)[C@H](O)[C@H]6O[C@@H]6O[C@H](C)[C@@H](O[C@@H]7OC[C@@H](O)[C@H](O[C@@H]8O[C@H](CO)[C@@H](O)[C@H](OC)[C@H]8O)[C@H]7O)[C@H](O)[C@H]6O)CC[C@]45C)[C@]2(C)CC(=O)[C@@H]31.[Na+] (some centres unmarked) [Cladoloside L1 (33), Cladoloside L1]
Hemolytic (membranolytic) activity, in words (human erythrocytes): strong hemolytics
ED50, Erythrocytes (hemolytic activity) (human erythrocytes): 0.20 ± 0.02 µM
IC50 [1, 5]: 17.9 ± 1.12 µM
IC50 [2, 6]: 12.7 ± 1.01 µM
Selectivity Index (SI), MCF-7 [2]: 1.41
IC50 [3, 7]: 9.03 ± 0.81 µM
Selectivity Index (SI), T-47D [3]: 1.98
IC50 [4, 8]: 13.4 ± 1.08 µM
Selectivity Index (SI), MDA-MB-231 [4]: 1.34
